Results on 27 molecules are retold here after patent publication US5834491A, “Bis(2-aminopyridine)s, preparation method therefor and use thereof for controlling parasitic infections” (priority 1994, dated 1998).

For data set [1], the system named is Plasmodium falciparum. The data set is described as follows: Antimalarial activity in vitro towards Plasmodium falciparum ([3H]hypoxanthine incorporation, infected human erythrocytes). Particulars: Erythrocyte, approximately 48 hours; for IC50 upper bound (active at tested concentration): Table I; for IC50: Table II. It is filed as cell-based. As for the experimental part: Evaluation of the antimalarial activity in vitro is carried out according to the method of DESJARDINS, CANFIELD, HATNES and CHULAY (Antimicrob. Agents Chemother., 1979, 16, 710-718). A compound according to the invention is brought into contact for approximately 48 hours with human erythrocytes infected with Plasmodium falciparum. When a radioactive nucleic acid precursor, hypoxanthine, is added to the preparation, only erythrocytes infected with Plasmodium and not affected by the said compound incorporate this precursor. […] The results are presented in Table I below, in the form of an IC50 (or ED50) (concentration of compound capable of inhibiting in vitro the growth of the parasites by 50%).
The derivatives according to the above examples are tested at three concentrations, 100, 33 and 10 nanomolar.

For data set [2] the following is noted: cited from earlier work.
For data set [3] the following is noted: cited from earlier work. The source holds these as a separate data set.
Data set [4] relates to Plasmodium vinckei, petteri or chabaudi. Put plainly: Antimalarial activity in vivo, infected mice, 4 days. Also noted: species or system petteri or chabaudi (male Swiss mice). Particulars: ip, I.P., twice daily for 4 consecutive days. As for the experimental part:
This activity is measured according to the test described by PETERS W. (Chemotherapy and Drug resistance in Malaria, 1970). A compound according to the invention is administered for 4 consecutive days to mice infected beforehand with malaria using Plasmodium vinckei, petteri or chabaudi.
The said compound is dissolved in 0.9% aqueous NaCl solution or, where appropriate, in 10% aqueous gum arabic solution. The preparations are thus administered intraperitoneally or subcutaneously to male Swiss mice of average weight 30 to 40 g which have been infected beforehand intravenously with Plasmodium petterei or P. chabaudi (10^6 infected cells). The compound is administered twice daily for 4 consecutive days, the first injection being performed 2 hours after infestation, and the second 10 hours after. The parasitaemia is determined by means of a smear on the day following the end of the treatment.
The results are collated in Table II, in the form of an ED50 (dose of compound administered in vivo capable of a 50% inhibition of the growth of the parasites).

Data set [5] can be described thus: Semi-chronic toxicity in vivo. Particulars: mouse, mice.
Setting [6] is: 33 nM, read-out: Plasmodium IC50 in vitro resp. at 33 nM.
Where [7] appears, read: 100 nM, read-out: Plasmodium IC50 in vitro resp. 100 nM.
Where [8] appears, read: ip, I.P., 2 injections daily for four days, read-out: Toxicity LD50 I.P.
Setting [9] is: po, P.O., semi-chronic, four days, read-out: Toxicity LD50 P.O.

Where a name gives a salt, the structure may show the parent alone. Read-outs that look alike come from different tables or passages of the source.

On to `CCCCc1cccn(CCCCCCCCCCCCn2cccc(CCCC)c2=N)c1=N` [Example 8, 1,1'-(1,12-dodecanediyl)bis(3-n-butyl-2(1H)-pyridinimine) dihydrobromide], for which the IC50 upper bound (active at tested concentration) was < 33 nM in data set [1] (setting [6]) and < 100 nM in data set [1] (setting [7]).

Regarding `Cc1ccn(CCCCCCn2ccc(C)cc2=N)c(=N)c1` [Example 14, 1,1'-(1,6-hexanediyl)bis(4-methyl-2(1H)-pyridinimine) dihydrobromide], the IC50 upper bound (active at tested concentration) in data set [1] (setting [6]) is > 33 nM; in data set [1] (setting [7]), < 100 nM.

Take `CCO[C@H]1O[C@@H]2O[C@@]3(C)CC[C@H]4[C@H](C)CC[C@@H]([C@H]1C)[C@@]24OO3` [artether]: the half-life result in data set [2] was “short half-life”. Moreover, the water-solubility result in data set [3] is recorded as “low water-solubility”.

With `N=c1cc(Br)ccn1CCCCCCCCCCCCn1ccc(Br)cc1=N` [Example 10, 1,1'-(1,12-dodecanediyl)bis(4-bromo-2(1H)-pyridinimine) dihydrobromide], the IC50 upper bound (active at tested concentration) in data set [1] (setting [6]) was < 33 nM; in data set [1] (setting [7]), < 100 nM.

In the case of `N=c1c(Cl)cc(C(F)(F)F)cn1CCCCCCCCCCCCn1cc(C(F)(F)F)cc(Cl)c1=N` [Example 11, 1,1'-(1,12-dodecanediyl)bis(3-chloro-5-trifluoromethyl-2(1H)-pyridinimine) dihydrobromide], the IC50 upper bound (active at tested concentration) was < 33 nM in data set [1] (setting [6]) and < 100 nM in data set [1] (setting [7]).

For the molecule `N=c1c(OCc2ccccc2)cccn1CCCCCCCCCCCCn1cccc(OCc2ccccc2)c1=N` [Example 6, 1,1'-(1,12-dodecanediyl)bis(3-phenylmethoxy-2(1H)-pyridinimine) dihydrobromide], the IC50 upper bound (active at tested concentration) in data set [1] (setting [6]) was < 33 nM; in data set [1] (setting [7]), < 100 nM.

With `Cc1ccn(CCCCCCCCCCCCCCCCn2ccc(C)cc2=N)c(=N)c1` [Example 15, 1,1'-(1,16-hexadecanediyl)bis(4-methyl-2(1H)-pyridiniminedihydrobromide], the results for the IC50 upper bound (active at tested concentration) in data set [1] (setting [6]) and in data set [1] (setting [7]) were < 33 nM and < 100 nM, respectively.

Regarding `N=c1ccc(Cl)cn1CCCCCCCCCCCCn1cc(Cl)ccc1=N` [Example 9, 1,1'-(1,12-dodecanediyl)bis(5-chloro-2(1H)-pyridinimine) dihydrobromide], the median effective dose (ED50) in data set [4] is 4 mg/kg. Further, the IC50 upper bound (active at tested concentration) was < 33 nM in data set [1] (setting [6]) and < 100 nM in data set [1] (setting [7]). In addition, in data set [1], inhibition was half-maximal at 1.4 nM (IC50). In addition, the LD50 in data set [5] (setting [8]) is 10 mg/kg; in data set [5] (setting [9]), > 200 mg/kg.

Consider `CCc1cccc(=N)n1CCCCCCCCCCCCn1c(CC)cccc1=N` [Example 26, 1,1'-(1,12-dodecanediyl)bis(6-ethyl-2(1H)-pyridinimine)], for which the IC50 upper bound (active at tested concentration) is < 33 nM in data set [1] (setting [6]) and < 100 nM in data set [1] (setting [7]).

As for `CCc1cccn(CCCCCCCCCCCCn2cccc(CC)c2=N)c1=N` [Example 23, 1,1'-(1,12-dodecanediyl)bis(3-ethyl-2(1H)-pyridinimine)], in data set [4], the ED50 was > 5 mg/kg. The IC50 upper bound (active at tested concentration) in data set [1] (setting [6]) was > 33 nM; in data set [1] (setting [7]) it was < 100 nM. This molecule displayed an IC50 in data set [1] of 7.2 nM. Further, the LD50 in data set [5] (setting [8]) is 23 mg/kg; in data set [5] (setting [9]), > 400 mg/kg.

Regarding `Cc1cc(C)c(=N)n(CCCCCCCCCCCCn2cc(C)cc(C)c2=N)c1` [Example 18, 1,1'-(1,12-dodecanediyl)bis(3,5-dimethyl-2(1H)-pyridinimine)], the IC50 upper bound (active at tested concentration) in data set [1] (setting [6]) is < 33 nM; in data set [1] (setting [7]) it was < 100 nM.

Take `Cc1ccc(=N)n(CCCCCCCCCCCCn2c(C)c(C)ccc2=N)c1C` [Example 22, 1,1'-(1,12-dodecanediyl)bis(5,6-dimethyl-2(1H)-pyridinimine)]: the IC50 upper bound (active at tested concentration) is < 33 nM in data set [1] (setting [6]) and < 100 nM in data set [1] (setting [7]).

With `Cc1ccn(CCCCCCCCCCCCn2ccc(C)c(C)c2=N)c(=N)c1C` [Example 17, 1,1'-(1,12-dodecanediyl)bis(3,4-dimethyl-2(1H)-pyridinimine)], the IC50 upper bound (active at tested concentration) in data set [1] (setting [6]) is < 33 nM; in data set [1] (setting [7]), < 100 nM.

In the case of `C[C@@H]1CC[C@H]2[C@@H](C)C(=O)O[C@@H]3O[C@@]4(C)CC[C@@H]1[C@]32OO4` [artemisinine], the water-solubility entry in data set [3] is recorded as “low water-solubility”.

`CCc1ccc(=N)n(CCCCCCCCCCCCn2cc(CC)ccc2=N)c1` [Example 25, 1,1'-(1,12-dodecanediyl)bis(5-ethyl-2(1H)-pyridinimine)]: the ED50 in data set [4] was > 5 mg/kg. Moreover, the IC50 upper bound (active at tested concentration) was < 33 nM in data set [1] (setting [6]) and < 100 nM in data set [1] (setting [7]). In data set [1], this molecule had an IC50 of 3.8 nM. In addition, the LD50 in data set [5] (setting [8]) was 7.5 mg/kg; in data set [5] (setting [9]), > 200 mg/kg.

In data set [4], `Cc1cccn(CCCCCCCCCCCCn2cccc(C)c2=N)c1=N` [Example 2, 1,1'-(1,12-dodecanediyl)bis(3-methyl-2(1H)-pyridinimine) dihydrobromide] registered an ED50 of 3 mg/kg. Moreover, the results for the IC50 upper bound (active at tested concentration) in data set [1] (setting [6]) and in data set [1] (setting [7]) were < 33 nM and < 100 nM, respectively. In data set [1], half-maximal inhibition (IC50) required 1.8 nM. For the same molecule, the LD50 in data set [5] (setting [8]) is 20 mg/kg; in data set [5] (setting [9]) it was > 500 mg/kg.

As for `CCc1ccn(CCCCCCCCCCCCCCCCn2ccc(CC)cc2=N)c(=N)c1` [Example 16, 1,1'-(1,16-hexadecanediyl)bis(4-ethyl-2(1H)-pyridinimine) dihydrobromide], the IC50 upper bound (active at tested concentration) in data set [1] (setting [6]) is > 33 nM; in data set [1] (setting [7]), < 100 nM.

For the molecule `Cc1cc(=N)n(CCCCCCCCCCCCn2cc(C)c(C)cc2=N)cc1C` [Example 20, 1,1'-(1,12-dodecanediyl)bis(4,5-dimethyl-2(1H)-pyridinimine)], the IC50 upper bound (active at tested concentration) was < 33 nM in data set [1] (setting [6]) and < 100 nM in data set [1] (setting [7]).

Consider `N=c1ccc(-c2ccccc2)cn1CCCCCCCCCCCCn1cc(-c2ccccc2)ccc1=N` [Example 5, 1,1'-(1,12-dodecanediyl)bis(5-phenyl-2(1H)-pyridinimine) dihydrobromide], for which the IC50 upper bound (active at tested concentration) in data set [1] (setting [6]) is < 33 nM; in data set [1] (setting [7]) it was < 100 nM.

On to `Cc1ccc(C)n(CCCCCCCCCCCCn2c(C)ccc(C)c2=N)c1=N` [Example 19, 1,1'-(1,12-dodecanediyl)bis(3,6-dimethyl-2(1H)-pyridinimine)], for which the IC50 upper bound (active at tested concentration) in data set [1] (setting [6]) is < 33 nM; in data set [1] (setting [7]), < 100 nM.

`Cc1ccn(CCCCCCCCn2ccc(C)cc2=N)c(=N)c1` [Example 13]: the IC50 upper bound (active at tested concentration) in data set [1] (setting [6]) is < 33 nM; in data set [1] (setting [7]) it was < 100 nM.

Take `Cc1ccc(=N)n(CCCCCCCCn2cc(C)ccc2=N)c1` [Example 12, 1,1'-(1,8-octanediyl)bis(5-methyl-2(1H)-pyridinimine) dihydrobromide]: the IC50 upper bound (active at tested concentration) in data set [1] (setting [6]) was > 33 nM; in data set [1] (setting [7]), < 100 nM.

`Cc1ccc(=N)n(CCCCCCCCCCCCn2cc(C)ccc2=N)c1` [Example 3, 1,1'-(1,12-dodecanediyl)bis(5-methyl-2(1H)-pyridinimine) dihydrobromide]: the ED50 in data set [4] stood at 3 mg/kg. The IC50 upper bound (active at tested concentration) in data set [1] (setting [6]) was < 33 nM; in data set [1] (setting [7]), < 100 nM. The molecule also showed a 50% inhibitory concentration (IC50) in data set [1] of 0.5 nM. The LD50 in data set [5] (setting [8]) is 6.5 mg/kg; in data set [5] (setting [9]), > 300 mg/kg.

In the case of `CCc1ccn(CCCCCCCCCCCCn2ccc(CC)cc2=N)c(=N)c1` [Example 24, 1,1'-(1,12-dodecanediyl)bis(4-ethyl-2(1H)-pyridinimine)], the IC50 upper bound (active at tested concentration) in data set [1] (setting [7]) is > 100 nM.

`Cc1ccc(-c2ccn(CCCCCCCCCCCCn3ccc(-c4ccc(C)cc4)cc3=N)c(=N)c2)cc1` [Example 7, 1,1'-(1,12-dodecanediyl)bis(4-(4-methyl-phenyl)-2(1H)-pyridinimine) dihydrobromide]: the figures for the IC50 upper bound (active at tested concentration) in data set [1] (setting [6]) and in data set [1] (setting [7]) were < 33 nM and < 100 nM, respectively.

In the case of `Cc1cccc(=N)n1CCCCCCCCCCCCn1c(C)cccc1=N` [Example 4, 1,1'-(1,12-dodecanediyl)bis(6-methyl-2(1H)-pyridinimine) dihydrobromide], the figures for the IC50 upper bound (active at tested concentration) in data set [1] (setting [6]) and in data set [1] (setting [7]) were < 33 nM and < 100 nM, respectively.

For the molecule `Cc1cc(C)n(CCCCCCCCCCCCn2c(C)cc(C)cc2=N)c(=N)c1` [Example 21, 1,1'-(1,12-dodecanediyl)bis(4,6-dimethyl-2(1H)-pyridinimine)], the figures for the IC50 upper bound (active at tested concentration) in data set [1] (setting [6]) and in data set [1] (setting [7]) were < 33 nM and < 100 nM, respectively.

One may read the ED50 as the dose at which the effect has come halfway, by size or by number of responders. Lower therefore signals an effect at a small dose. The IC50 is the concentration at which inhibition is half-maximal. The low end stands for inhibition by little substance, the high end for a need for much substance. For orientation: LD50 means the dose at which mortality reaches 50%.
